According to US20230085307A1, “PYRIDAZINONE COMPOUND AND HERBICIDE” (NISSAN CHEMICAL CORPORATION, priority 2019, published 2023):

Experiments:
rice flat sedge = assay: Test Example 3: herbicidal effect by foliage application, Wagner pot (Table 18, symbol E); type: in vivo, rice flat sedge (Cyperus iria); details: amount of applied herbicide 320 g/ha
Outline: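 Plants were sown in alluvial soil held under 0.1–0.5 cm standing water and grown 14 days in a greenhouse at 25–30 °C. An emulsifiable formulation, water-diluted to the set dose, was then sprayed onto the foliage, and effects were scored three weeks later using previously defined criteria.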

oval-leafed pondweed [1] = assay: Test Example 2: herbicidal activity, application during weed generation under submerged conditions (Table 17, symbol C); type: in vivo, oval-leafed pondweed (Monochoria vaginalis); details: AAH 320 g/ha; application during weed generation, submerged conditions
Outline: (§1)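 In this pot test, flooded alluvial soil (water depth 4 cm) holds all three species sown as a mixture. Once seedlings have one to two leaves, the compound's emulsion, thinned with water to the intended dose, is poured on the water; grading follows after three weeks on the earlier criteria.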

wild oat = assay: Test Example 4: herbicidal effect by soil treatment (Table 19, symbol I); type: in vivo, wild oat (Avena fatua); details: amount of applied herbicide 320 g/ha
Outline: (§2)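 Emulsion of test compound, water-diluted to predetermined amount, sprayed on soil after sowing (seed depth ~1.5 cm, sterilized diluvial soil). Greenhouse, 25–30° C. Effect graded at three weeks post-spray.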

green foxtail [2] = assay: Test Example 4: herbicidal effect by soil treatment (Table 19, symbol G); type: in vivo, green foxtail (Setaria viridis); details: amount of applied herbicide 320 g/ha
Outline: as §2

Japanese bulrush [3] = assay: Test Example 2: herbicidal activity, application during weed generation under submerged conditions (Table 17, symbol B); type: in vivo, Japanese bulrush (Schoenoplectus juncoides); details: AAH 320 g/ha; application during weed generation, submerged conditions
Outline: as §1

windgrass [4] = assay: Test Example 4: herbicidal effect by soil treatment (Table 19, symbol L); type: in vivo, windgrass (Apera spica-venti); details: amount of applied herbicide 320 g/ha
Outline: as §2

Italian ryegrass = assay: Test Example 4: herbicidal effect by soil treatment (Table 19, symbol K); type: in vivo, Italian ryegrass (Lolium multiflorum); details: amount of applied herbicide 320 g/ha
Outline: as §2

oval-leafed pondweed [5] = assay: Test Example 1: herbicidal activity, application before weed generation under submerged conditions (Table 16, symbol C); type: in vivo, oval-leafed pondweed (Monochoria vaginalis); details: 320 g/ha applied herbicide
Outline: (§3)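 Emulsion formulation, water-diluted to set dose, was put onto the flooded surface (4 cm depth, alluvial soil) the same day weeds were sown and 2.5-leaf rice transplanted. After 3 weeks at 25-30 °C under glass, each species was rated 0 (≤5% kill) to 5 (≥90% kill).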

green foxtail [6] = assay: Test Example 5: herbicidal effect by foliage application, plastic box (Table 20, symbol G); type: in vivo, green foxtail (Setaria viridis); details: foliage application, AAH 320 g/ha, evaluated three weeks after application
Outline: (§4)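 Post-emergence foliar test in sterilized diluvial soil. Compound applied as water-diluted emulsion at a predetermined rate to 14-day-old plants; evaluation at three weeks.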

Japanese bulrush [7] = assay: Test Example 1: herbicidal activity, application before weed generation under submerged conditions (Table 16, symbol B); type: in vivo, Japanese bulrush (Schoenoplectus juncoides); details: 320 g/ha applied herbicide
Outline: as §3

velvetleaf = assay: Test Example 4: herbicidal effect by soil treatment (Table 19, symbol M); type: in vivo, velvetleaf (Abutilon theophrasti); details: amount of applied herbicide 320 g/ha
Outline: as §2

chickweed = assay: Test Example 5: herbicidal effect by foliage application, plastic box (Table 20, symbol P); type: in vivo, common chickweed (Stellaria media); details: foliage application, AAH 320 g/ha, evaluated three weeks after application
Outline: as §4

windgrass [8] = assay: Test Example 5: herbicidal effect by foliage application, plastic box (Table 20, symbol L); type: in vivo, windgrass (Apera spica-venti); details: foliage application, AAH 320 g/ha, evaluated three weeks after application
Outline: as §4

lambsquarters = assay: Test Example 5: herbicidal effect by foliage application, plastic box (Table 20, symbol O); type: in vivo, lambsquarters (Chenopodium album); details: foliage application, AAH 320 g/ha, evaluated three weeks after application
Outline: as §4

persian speedwell = assay: Test Example 4: herbicidal effect by soil treatment (Table 19, symbol R); type: in vivo, Persian speedwell (Veronica persica); details: amount of applied herbicide 320 g/ha
Outline: as §2

southern crabgrass = assay: Test Example 5: herbicidal effect by foliage application, plastic box (Table 20, symbol F); type: in vivo, southern crabgrass (Digitaria ciliaris); details: foliage application, AAH 320 g/ha, evaluated three weeks after application
Outline: as §4

Cc1nn(C)c(=O)c(-c2c(-c3ccc(OC(F)F)cc3)sc3ccc(F)cc23)c1OC(=O)c1ccc(Cl)cc1 [2-286]
herbicidal effect on E: rice flat sedge (rice flat sedge): 4 (Herbicidal rate of 70% or more and less than 90%)
herbicidal effect rating, C: oval-leafed pondweed (oval-leafed pondweed [1]): 3 (Herbicidal rate of 40% or more and less than 70%)
herbicidal effect on I: wild oat (wild oat): 0 (Herbicidal rate of 5% or less (almost no effect))
herbicidal effect on G: green foxtail (green foxtail [2]): 3 (Herbicidal rate of 40% or more and less than 70%)
herbicidal effect rating, B: Japanese bulrush (Japanese bulrush [3]): 3 (Herbicidal rate of 40% or more and less than 70%)
herbicidal effect on L: windgrass (windgrass [4]): 0 (Herbicidal rate of 5% or less (almost no effect))
herbicidal effect on K: Italian ryegrass (Italian ryegrass): 5 (Herbicidal rate of 90% or more (almost completely withered))
Herbicidal effect on C: oval-leafed pondweed (grade 0-5) (oval-leafed pondweed [5]): 1 (Herbicidal rate of 5% or more and less than 20%)
G: green foxtail, herbicidal effect (criteria 0-5) (green foxtail [6]): 5 (Herbicidal rate of 90% or more (almost completely withered))
Herbicidal effect on B: Japanese bulrush (grade 0-5) (Japanese bulrush [7]): 3 (Herbicidal rate of 40% or more and less than 70%)
herbicidal effect on M: velvetleaf (velvetleaf): 0 (Herbicidal rate of 5% or less (almost no effect))
P: chickweed, herbicidal effect (criteria 0-5) (chickweed): 5 (Herbicidal rate of 90% or more (almost completely withered))
L: windgrass, herbicidal effect (criteria 0-5) (windgrass [8]): 0 (Herbicidal rate of 5% or less (almost no effect))
O: lambsquarters, herbicidal effect (criteria 0-5) (lambsquarters): 5 (Herbicidal rate of 90% or more (almost completely withered))
herbicidal effect on R: persian speedwell (persian speedwell): 3 (Herbicidal rate of 40% or more and less than 70%)
F: southern crabgrass, herbicidal effect (criteria 0-5) (southern crabgrass): 2 (Herbicidal rate of 20% or more and less than 40%)

Cc1nn(C)c(=O)c(-c2c(-c3ccc(OC(F)F)cc3)sc3ccc(F)cc23)c1OC(=O)c1ccco1 [2-287]
herbicidal effect on E: rice flat sedge (rice flat sedge): 5 (Herbicidal rate of 90% or more (almost completely withered))
herbicidal effect rating, C: oval-leafed pondweed (oval-leafed pondweed [1]): 4 (Herbicidal rate of 70% or more and less than 90%)
herbicidal effect on I: wild oat (wild oat): 0 (Herbicidal rate of 5% or less (almost no effect))
herbicidal effect on G: green foxtail (green foxtail [2]): 5 (Herbicidal rate of 90% or more (almost completely withered))
herbicidal effect rating, B: Japanese bulrush (Japanese bulrush [3]): 3 (Herbicidal rate of 40% or more and less than 70%)
herbicidal effect on L: windgrass (windgrass [4]): 3 (Herbicidal rate of 40% or more and less than 70%)
herbicidal effect on K: Italian ryegrass (Italian ryegrass): 5 (Herbicidal rate of 90% or more (almost completely withered))
Herbicidal effect on C: oval-leafed pondweed (grade 0-5) (oval-leafed pondweed [5]): 4 (Herbicidal rate of 70% or more and less than 90%)
G: green foxtail, herbicidal effect (criteria 0-5) (green foxtail [6]): 5 (Herbicidal rate of 90% or more (almost completely withered))
Herbicidal effect on B: Japanese bulrush (grade 0-5) (Japanese bulrush [7]): 4 (Herbicidal rate of 70% or more and less than 90%)
herbicidal effect on M: velvetleaf (velvetleaf): 5 (Herbicidal rate of 90% or more (almost completely withered))
P: chickweed, herbicidal effect (criteria 0-5) (chickweed): 5 (Herbicidal rate of 90% or more (almost completely withered))
L: windgrass, herbicidal effect (criteria 0-5) (windgrass [8]): 4 (Herbicidal rate of 70% or more and less than 90%)
O: lambsquarters, herbicidal effect (criteria 0-5) (lambsquarters): 5 (Herbicidal rate of 90% or more (almost completely withered))
herbicidal effect on R: persian speedwell (persian speedwell): 5 (Herbicidal rate of 90% or more (almost completely withered))
F: southern crabgrass, herbicidal effect (criteria 0-5) (southern crabgrass): 5 (Herbicidal rate of 90% or more (almost completely withered))

Cc1nn(C)c(=O)c(-c2c(-c3ccc(OC(F)F)cc3)sc3ccc(F)cc23)c1OC(=O)C1CCCO1 (centres unmarked) [2-289]
herbicidal effect on E: rice flat sedge (rice flat sedge): 5 (Herbicidal rate of 90% or more (almost completely withered))
herbicidal effect rating, C: oval-leafed pondweed (oval-leafed pondweed [1]): 4 (Herbicidal rate of 70% or more and less than 90%)
herbicidal effect on I: wild oat (wild oat): 2 (Herbicidal rate of 20% or more and less than 40%)
herbicidal effect on G: green foxtail (green foxtail [2]): 5 (Herbicidal rate of 90% or more (almost completely withered))
herbicidal effect rating, B: Japanese bulrush (Japanese bulrush [3]): 3 (Herbicidal rate of 40% or more and less than 70%)
herbicidal effect on L: windgrass (windgrass [4]): 4 (Herbicidal rate of 70% or more and less than 90%)
herbicidal effect on K: Italian ryegrass (Italian ryegrass): 5 (Herbicidal rate of 90% or more (almost completely withered))
Herbicidal effect on C: oval-leafed pondweed (grade 0-5) (oval-leafed pondweed [5]): 3 (Herbicidal rate of 40% or more and less than 70%)
G: green foxtail, herbicidal effect (criteria 0-5) (green foxtail [6]): 5 (Herbicidal rate of 90% or more (almost completely withered))
Herbicidal effect on B: Japanese bulrush (grade 0-5) (Japanese bulrush [7]): 3 (Herbicidal rate of 40% or more and less than 70%)
herbicidal effect on M: velvetleaf (velvetleaf): 5 (Herbicidal rate of 90% or more (almost completely withered))
P: chickweed, herbicidal effect (criteria 0-5) (chickweed): 5 (Herbicidal rate of 90% or more (almost completely withered))
L: windgrass, herbicidal effect (criteria 0-5) (windgrass [8]): 5 (Herbicidal rate of 90% or more (almost completely withered))
O: lambsquarters, herbicidal effect (criteria 0-5) (lambsquarters): 5 (Herbicidal rate of 90% or more (almost completely withered))
herbicidal effect on R: persian speedwell (persian speedwell): 5 (Herbicidal rate of 90% or more (almost completely withered))
F: southern crabgrass, herbicidal effect (criteria 0-5) (southern crabgrass): 3 (Herbicidal rate of 40% or more and less than 70%)

CCOC(=O)Oc1c(C)nn(C)c(=O)c1-c1c(-c2ccc(OC(F)F)cc2)sc2ccc(F)cc12 [2-292]
herbicidal effect on E: rice flat sedge (rice flat sedge): 4 (Herbicidal rate of 70% or more and less than 90%)
herbicidal effect rating, C: oval-leafed pondweed (oval-leafed pondweed [1]): 5 (Herbicidal rate of 90% or more (almost completely withered))
herbicidal effect on I: wild oat (wild oat): 0 (Herbicidal rate of 5% or less (almost no effect))
herbicidal effect on G: green foxtail (green foxtail [2]): 5 (Herbicidal rate of 90% or more (almost completely withered))
herbicidal effect rating, B: Japanese bulrush (Japanese bulrush [3]): 5 (Herbicidal rate of 90% or more (almost completely withered))
herbicidal effect on L: windgrass (windgrass [4]): 1 (Herbicidal rate of 5% or more and less than 20%)
herbicidal effect on K: Italian ryegrass (Italian ryegrass): 5 (Herbicidal rate of 90% or more (almost completely withered))
Herbicidal effect on C: oval-leafed pondweed (grade 0-5) (oval-leafed pondweed [5]): 4 (Herbicidal rate of 70% or more and less than 90%)
G: green foxtail, herbicidal effect (criteria 0-5) (green foxtail [6]): 5 (Herbicidal rate of 90% or more (almost completely withered))
Herbicidal effect on B: Japanese bulrush (grade 0-5) (Japanese bulrush [7]): 5 (Herbicidal rate of 90% or more (almost completely withered))
herbicidal effect on M: velvetleaf (velvetleaf): 3 (Herbicidal rate of 40% or more and less than 70%)
P: chickweed, herbicidal effect (criteria 0-5) (chickweed): 5 (Herbicidal rate of 90% or more (almost completely withered))
L: windgrass, herbicidal effect (criteria 0-5) (windgrass [8]): 2 (Herbicidal rate of 20% or more and less than 40%)
O: lambsquarters, herbicidal effect (criteria 0-5) (lambsquarters): 5 (Herbicidal rate of 90% or more (almost completely withered))
herbicidal effect on R: persian speedwell (persian speedwell): 5 (Herbicidal rate of 90% or more (almost completely withered))
F: southern crabgrass, herbicidal effect (criteria 0-5) (southern crabgrass): 5 (Herbicidal rate of 90% or more (almost completely withered))

Cc1nn(C)c(=O)c(-c2c(-c3ccc(OC(F)F)cc3)sc3ccc(F)cc23)c1OC(=O)OCCCl [2-293]
herbicidal effect on E: rice flat sedge (rice flat sedge): 5 (Herbicidal rate of 90% or more (almost completely withered))
herbicidal effect rating, C: oval-leafed pondweed (oval-leafed pondweed [1]): 4 (Herbicidal rate of 70% or more and less than 90%)
herbicidal effect on I: wild oat (wild oat): 0 (Herbicidal rate of 5% or less (almost no effect))
herbicidal effect on G: green foxtail (green foxtail [2]): 5 (Herbicidal rate of 90% or more (almost completely withered))
herbicidal effect rating, B: Japanese bulrush (Japanese bulrush [3]): 3 (Herbicidal rate of 40% or more and less than 70%)
herbicidal effect on L: windgrass (windgrass [4]): 4 (Herbicidal rate of 70% or more and less than 90%)
herbicidal effect on K: Italian ryegrass (Italian ryegrass): 5 (Herbicidal rate of 90% or more (almost completely withered))
Herbicidal effect on C: oval-leafed pondweed (grade 0-5) (oval-leafed pondweed [5]): 4 (Herbicidal rate of 70% or more and less than 90%)
G: green foxtail, herbicidal effect (criteria 0-5) (green foxtail [6]): 5 (Herbicidal rate of 90% or more (almost completely withered))
Herbicidal effect on B: Japanese bulrush (grade 0-5) (Japanese bulrush [7]): 5 (Herbicidal rate of 90% or more (almost completely withered))
herbicidal effect on M: velvetleaf (velvetleaf): 5 (Herbicidal rate of 90% or more (almost completely withered))
P: chickweed, herbicidal effect (criteria 0-5) (chickweed): 5 (Herbicidal rate of 90% or more (almost completely withered))
L: windgrass, herbicidal effect (criteria 0-5) (windgrass [8]): 4 (Herbicidal rate of 70% or more and less than 90%)
O: lambsquarters, herbicidal effect (criteria 0-5) (lambsquarters): 5 (Herbicidal rate of 90% or more (almost completely withered))
herbicidal effect on R: persian speedwell (persian speedwell): 5 (Herbicidal rate of 90% or more (almost completely withered))
F: southern crabgrass, herbicidal effect (criteria 0-5) (southern crabgrass): 5 (Herbicidal rate of 90% or more (almost completely withered))
